Source: patent US8313934B2, “Reduction of the toxic effect of impurities from raw materials by extractive fermentation” (LS9, Inc., priority 2007, dated 2012)

How the values were obtained:
[1] = test system: LS9-ID1; assay: Effect of common toxins on growth of the production strain (shake flasks, OD); assay type: cell-based, E. coli; details: for % Inhibition for LS9-ID1: toxin added at the reported MIC, growth by OD vs control without toxin
Experimental: A culture of a genetically engineered strain of E. coli, LS9-ID1, was transferred from a frozen stock and incubated in Luria-Bertani broth for approximately three hours. The culture was transferred to a defined mineral medium commonly used for E. coli, M9, buffered and supplemented with thiamine and trace minerals. The culture was further incubated and used to inoculate the same fermentation media with 50 g/L of carbohydrate (glucose, fructose, some pentoses).
The toxicity towards microbial strains of many of the compounds in hemicelluloses and cellulose hydrolysates has been examined individually. In the case of E. coli, the toxicity is related to the hydrophobicity of the toxin. The effects of several of these compounds on the growth of certain microbial strains were evaluated. The tests were done in shake flasks by following a protocol similar to that described in example 1, above, but without the induction and the addition of alcohols.
Other concentrations were also tested to determine the range where the effect was observed. The inhibition level was reported as the ratio between growth in the absence of the toxin (control) minus growth in the presence of the toxin and growth in the control.

[2] = test system: E. coli; details: minimal inhibitory concentration that completely inhibits growth, as reported in the literature; cited from earlier work
[3] = test system: LS9-ID1; assay: Extractive fermentation with toxin, with or without hydrophobic solvent: FAME production (GC); assay type: cell-based, E. coli; details: 24 h, % of no-toxin control; for % FAME titer With C2:C18: ethyl oleate 1:3
Experimental: The production of fatty acid methyl and ethyl esters was analyzed by gas chromatography with flame ionization detector (GC-FID). The samples from fermentation broth were extracted with ethyl acetate in a ratio of 1:1 vol/vol. After strong vortexing, the samples were centrifuged and the organic phase was analyzed by gas chromatography (GC). The analysis conditions were as follows: instrument: Trace GC Ultra, Thermo Electron Corporation with Flame ionization detector (FID) detector; column: DB-1 (1% diphenyl siloxane; 99% dimethyl siloxane) CO1 UFM 1/0.1/5 01 DET from Thermo Electron Corporation, phase pH 5, FT: 0.4 μm, length 5 m, id: 0.1 mm; inlet conditions: 250° C. splitless, 3.8 min 1/25 split method used depending upon sample concentration with split flow of 75 ml/min; carrier gas, flow rate: Helium, 3.0 ml/min; block temperature: 330° C.; oven temperature: 0.5 minute hold at 50° C.; 100° C./minute to 330° C., 0.5 minute hold at 330° C.; detector temperature: 300° C.; injection volume: 2 μL; run time/flow rate: 6.3 min/3.0 ml/min (splitless method), 3.8 min/1.5 ml/min (split 1/25 method), 3.04 min/1.2 ml/min (split 1/50 method).
To determine the ability to perform extractive fermentations using products generated by the engineered strain of E. coli, LS9-ID1, to improve the performance of the fermentation in the presence of toxins, the fermentations were performed using a protocol similar to that described in example 1, above. Two sets of duplicate flasks were prepared with different concentrations of the toxin to be tested. One set served as the control, which included the toxin without the extractant, the hydrophobic solvent. In the second set, the extractant was added in a ratio of 1 volume of solvent per 3 volumes of fermentation broth. The flasks were then inoculated and incubated at 37° C. in agitated shakers. When the OD 600 reached a value of 1, the cultures were induced by the addition of 1 mM IPTG and 20 ml/L methanol. Cell growth and production of fatty acids methyl esters (FAME) was measured at 24 hours. In cultures without hydrophobic solvents (control), OD was measured directly in the fermentation broth. In flasks with solvent there was interference in OD measurement, and to eliminate this problem, the broth was centrifuged and the cell pellet was resuspended in the same volume of distilled water. The OD was measured in this suspension.
(§1) To analyze FAME production, 0.5 ml of broth was well mixed with 0.5 ml of ethylacetate. The organic phase was analyzed by gas chromatography. In the samples with solvents, additional dilutions were applied. All the toxins were tested with ethyl oleate (C2:C18 ester, or C2:C18) as a solvent representative of a biodiesel. Growth and FAME production are reported as percentage of the control condition (no toxin added). Each result is the average of duplicate experiments.

[4] = test system: LS9-ID1; assay: Extractive fermentation with toxin, with or without hydrophobic solvent: cell growth (OD600); assay type: cell-based, E. coli; details: for % Growth With C1:C12: methyl laureate as solvent; for % Growth With Hexadecane: hexadecane as solvent; for % Growth With Eicosadecene: eicosadecene as solvent; for % Growth With Biodiesel: commercial biodiesel as solvent
Experimental: Two sets of duplicate flasks were prepared with different concentrations of the toxin to be tested. One set served as the control, which included the toxin without the extractant, the hydrophobic solvent. In the second set, the extractant was added in a ratio of 1 volume of solvent per 3 volumes of fermentation broth. The flasks were then inoculated and incubated at 37° C. in agitated shakers. When the OD 600 reached a value of 1, the cultures were induced by the addition of 1 mM IPTG and 20 ml/L methanol. Cell growth and production of fatty acids methyl esters (FAME) was measured at 24 hours. In cultures without hydrophobic solvents (control), OD was measured directly in the fermentation broth. […] The OD was measured in this suspension.
as §1
The solvents methyl laureate (C1:C12 ester, or C1:C12), hexadecane (an alkane), eicosadecene (an alkene) and commercial biodiesel were tested.

[5] = test system: LS9-ID1; assay: Solvent pretreatment of toxin-spiked media before fermentation: cell growth; assay type: cell-based, E. coli; details: Table 12, toxin 1.5 g/L; for % Growth With Pretreatment: media extracted with methyl laureate 1:3 vol:vol, 37° C., 60 minutes, before inoculation; for % Growth No solvent: untreated media
Excerpt: The raw materials can be treated to remove the toxin prior to the fermentation. For this purpose it will be possible to use the bioproduct after the initial steps of purification (centrifugal separation for example) but prior to any polishing or finishing step. The sugar containing raw material can be placed in contact with the solvent in a batch or in a continuous counter current mode. After extraction, the raw material (aqueous phase) can be separated from the solvent by decantation or centrifugation.
Tests were performed similarly to that described in the above Examples. Fermentation media was prepared and spiked with the desired concentration of the toxin. Methyl laureate was used as a solvent representative of biodiesel. It was added to the fermentation media in a 1:3 vol:vol ratio. Solvent and broth were thoroughly mixed at 37° C. for 60 minutes. The aqueous layer was decanted in a separatory funnel and collected. The resulting media was then inoculated with LS9-ID1 and growth was compared against similar media containing the toxin but which had not been treated.

[6] = toxin 1.5 g/L, ethyl oleate 1:3 vol solvent:broth, 24 h, % of no-toxin control
[7] = toxin 1.5 g/L, 24 h, % of no-toxin control (Tables 3-7)
[8] = toxin 3.0 g/L, ethyl oleate 1:3, 24 h, % of no-toxin control
[9] = toxin 3.0 g/L, 24 h, % of no-toxin control (Tables 3-7)

| Structure (SMILES) | % Inhibition for LS9-ID1 [1] [%] | Reported MIC [2] [µg/mL] | % Growth With C1:C12 ([4]; Table 8, toxin 1.5 g/L) [%] | % Growth No solvent ([4]; Table 8, toxin 1.5 g/L) [%] | % Growth With Hexadecane ([4]; Table 9, toxin 1.5 g/L) [%] | % Growth No solvent ([4]; Table 9, toxin 1.5 g/L) [%] | % Growth With Eicosadecene ([4]; Table 10, toxin 1.5 g/L) [%] | % Growth No solvent ([4]; Table 10, toxin 1.5 g/L) [%] | % FAME titer With C2:C18 ([3]; toxin 1.5 g/L) [%] | % FAME titer No solvent ([3]; toxin 1.5 g/L) [%] | % FAME titer With C2:C18 ([3]; toxin 3.0 g/L) [%] | % FAME titer No solvent ([3]; toxin 3.0 g/L) [%] | % Growth With Pretreatment [5] [%] | % Growth No solvent [5] [%] | % of Growth inhibition ([1]; toxin 1.00 g/L) [%] | % of Growth inhibition ([1]; toxin 1.50 g/L) [%] | % Growth With C2:C18 [4, 6] [%] | % Growth No solvent [4, 7] [%] | % Growth With C2:C18 [4, 8] [%] | % Growth No solvent [4, 9] [%] | other results |
| --- | --- | --- | --- | --- | --- | --- | --- | --- | --- | --- | --- | --- | --- | --- | --- | --- | --- | --- | --- | --- | --- |
| Cc1ccc(O)c(O)c1 [4-Methyl catechol] | 25 | 1500 | – | – | – | – | – | – | – | – | – | – | – | – | – | – | – | – | – | – | – |
| O=Cc1ccc(O)cc1 [4-hydroxybenzaldehyde] | 100 | 1250 | 33.0 | 20.2 | 53.8 | 6.2 | 11.2 | 9.6 | – | – | – | – | – | – | – | – | – | – | – | – | % FAME titer With C2:C18 ([3]; toxin 0.63 g/L): 72.6%; % FAME titer No solvent ([3]; toxin 0.63 g/L): 54.3%; % FAME titer With C2:C18 ([3]; toxin 1.25 g/L): 31.8%; % FAME titer No solvent ([3]; toxin 1.25 g/L): 18.1%; % Growth With C2:C18 ([4]; toxin 0.63 g/L, ethyl oleate 1:3, 24 h, % of no-toxin control): 68.0%; % Growth No solvent ([4]; toxin 0.63 g/L, 24 h, % of no-toxin control): 70.0%; % Growth With C2:C18 ([4]; toxin 1.25 g/L, ethyl oleate 1:3, 24 h, % of no-toxin control): 60.0%; % Growth No solvent ([4]; toxin 1.25 g/L, 24 h, % of no-toxin control): 45.0% |
| O=Cc1ccc(CO)o1 [5-Hydroxymethylfurfural] | 100 | 4000 | – | – | – | – | – | – | – | – | – | – | – | – | – | – | – | – | – | – | % Growth With Hexadecane ([4]; Table 9, toxin 2.0 g/L): 57.1%; % Growth No solvent ([4]; Table 9, toxin 2.0 g/L): 39.8%; % Growth With Eicosadecene ([4]; Table 10, toxin 2.0 g/L): 55.3%; % Growth No solvent ([4]; Table 10, toxin 2.0 g/L): 51.8%; % Growth With C2:C18 ([4]; toxin 4.0 g/L, ethyl oleate 1:3, 24 h, % of no-toxin control): 20.9%; % Growth No solvent ([4]; toxin 4.0 g/L, 24 h, % of no-toxin control): 4.7%; % Growth With C2:C18 ([4]; toxin 8.0 g/L, ethyl oleate 1:3, 24 h, % of no-toxin control): 9.1%; % Growth No solvent ([4]; toxin 8.0 g/L, 24 h, % of no-toxin control): 2.2% |
| O=Cc1ccco1 [Furfural] | 100 | 3500 | – | – | 38.5 | 17.7 | 56.7 | 33.3 | 72.7 | 35.5 | 43.2 | 4.5 | 69.6 | 33.3 | 0 | 60.0 | 71.9 | 40.0 | 53.6 | 21.5 | % of Growth inhibition ([1]; toxin 3.00 g/L): 18.5%; % Growth With C1:C12 ([4]; Table 8, toxin 3.0 g/L): 16.7%; % Growth No solvent ([4]; Table 8, toxin 3.0 g/L): 6.1%; % Growth With Biodiesel ([4]; Table 11, toxin 1.5 g/L): 49.7%; % Growth No solvent ([4]; Table 11, toxin 1.5 g/L): 33.3% |
| COc1ccccc1O [Guaiacol] | 100 | 3000 | 88.6 | 18.3 | 41.8 | 12.7 | 31.8 | 15.8 | 100.5 | 10.2 | 76.2 | 2.3 | – | – | 0 | 41.7 | 93.7 | 30.4 | 65.1 | 12.5 | % of Growth inhibition ([1]; toxin 2.00 g/L): 83.3%; % of Growth inhibition ([1]; toxin 3.00 g/L): 100% |
| COc1cc(C=O)cc(OC)c1O [Syringaldehyde] | 100 | 2500 | – | – | 40.7 | 19.5 | 48.2 | 8.8 | 94.8 | 16.2 | 92.7 | 2.0 | 83.3 | 8.8 | – | – | 41.0 | 34.4 | 14.8 | 6.6 | % Growth With Co-treatment ([5]; co-treatment): 61.2%; % Growth With Biodiesel ([4]; Table 11, toxin 1.5 g/L): 39.2%; % Growth No solvent ([4]; Table 11, toxin 1.5 g/L): 8.8% |
